In US20240327412A1, “FACTOR XIIA INHIBITORS” (KALVISTA PHARMACEUTICALS LIMITED, priority 2021, published 2024):

Legend:
Human Factor XIIa = target: T1, Human Factor XIIa (Homo sapiens, UniProt P00748); experiment: Determination of FXIIa inhibition (fluorogenic substrate H-DPro-Phe-Arg-AFC, IC50 assay); format: biochemical; conditions: substrate at Km concentration, 25° C.; category scale; read-out: Human FXII IC50 (nm)
T1 construct: Proteolytic cleavage of FXII to heavy and light chains of FXIIa dramatically increases catalytic activity; purchased Enzyme Research Laboratories
T1 sequence (P00748 373-615 limits assumed): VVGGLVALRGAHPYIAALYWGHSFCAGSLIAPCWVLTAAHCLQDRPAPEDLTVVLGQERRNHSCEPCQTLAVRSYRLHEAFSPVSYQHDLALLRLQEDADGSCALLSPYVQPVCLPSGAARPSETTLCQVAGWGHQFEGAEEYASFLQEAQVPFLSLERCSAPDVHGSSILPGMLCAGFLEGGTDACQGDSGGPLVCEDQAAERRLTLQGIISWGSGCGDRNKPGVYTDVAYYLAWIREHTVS
T1 sequence (P00748 20-372 partner limits assumed): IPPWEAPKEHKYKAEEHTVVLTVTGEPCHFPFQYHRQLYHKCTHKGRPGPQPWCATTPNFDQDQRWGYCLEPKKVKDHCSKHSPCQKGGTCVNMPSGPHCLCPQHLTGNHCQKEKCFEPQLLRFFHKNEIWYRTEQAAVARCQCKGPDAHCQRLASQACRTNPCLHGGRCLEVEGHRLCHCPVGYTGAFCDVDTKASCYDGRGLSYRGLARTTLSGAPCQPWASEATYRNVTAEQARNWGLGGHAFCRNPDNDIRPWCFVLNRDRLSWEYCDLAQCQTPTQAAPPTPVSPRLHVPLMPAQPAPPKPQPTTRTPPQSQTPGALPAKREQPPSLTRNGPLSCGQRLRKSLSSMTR
How it was run: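 Human FXIIa incubated at 25° C. with fluorogenic H-DPro-Phe-Arg-AFC at its Km concentration plus varying compound levels. Linear fluorescence increase over 5 min taken as % activity; IC50 is concentration halving uninhibited activity.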

Plasma Kallikrein = target: T2, Plasma Kallikrein (Homo sapiens, UniProt P03952); experiment: Related protease inhibition: Plasma Kallikrein (fluorogenic substrate at Km); format: biochemical; conditions: class symbols per Table 18, read-out: IC50 (human PKal)
T2 construct: FXIIa converts plasma prekallikrein (PK) to plasma kallikrein (PKa)
Description: In vitro inhibition of related proteases was determined using an IC50 assay based on standard literature methods (see e.g. Shori et al., Biochem. Pharmacol., 1992, 43, 1209; Bouckaert et al., European Journal of Medicinal Chemistry 110 (2016) 181). Human serine protease enzyme Plasma Kallikrein, KLK1, FXa, Plasmin, Thrombin and Trypsin were assayed for enzymatic activity using an appropriate fluorogenic substrate at Km concentration, FXIa at fixed substrate concentration of 100 μM and various concentrations of the test compound. Protease activity was measured by monitoring the accumulation of liberated fluorescence from the substrate over 5 min at 25° C. The linear rate of fluorescence increase per minute was expressed as percentage (%) activity. IC50 values were calculated as the concentration of inhibitor giving 50% inhibition of the uninhibited enzyme activity (100%).

T2 sequence (P03952 391-638 limits assumed): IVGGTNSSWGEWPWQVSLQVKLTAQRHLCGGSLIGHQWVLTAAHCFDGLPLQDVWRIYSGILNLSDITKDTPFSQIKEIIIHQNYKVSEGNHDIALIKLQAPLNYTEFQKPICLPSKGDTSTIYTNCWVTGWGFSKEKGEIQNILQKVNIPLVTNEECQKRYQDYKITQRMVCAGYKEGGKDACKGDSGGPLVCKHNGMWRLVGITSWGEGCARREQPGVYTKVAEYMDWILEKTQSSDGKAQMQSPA
T2 sequence (P03952 20-390 partner limits assumed): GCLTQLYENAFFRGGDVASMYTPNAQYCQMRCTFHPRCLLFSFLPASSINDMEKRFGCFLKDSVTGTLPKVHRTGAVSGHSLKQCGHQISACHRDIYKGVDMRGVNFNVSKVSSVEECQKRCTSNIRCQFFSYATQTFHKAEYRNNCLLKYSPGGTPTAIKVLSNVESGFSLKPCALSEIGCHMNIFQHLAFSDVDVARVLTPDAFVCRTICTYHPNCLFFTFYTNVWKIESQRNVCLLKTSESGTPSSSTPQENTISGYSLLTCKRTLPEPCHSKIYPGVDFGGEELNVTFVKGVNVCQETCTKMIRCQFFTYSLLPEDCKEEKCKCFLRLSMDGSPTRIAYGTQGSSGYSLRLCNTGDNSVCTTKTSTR

IC50 (Human Factor XIIa)	IC50 (Plasma Kallikrein)	Compound
10 to 40 µM	> 40 µM	Nc1nccc2c(N3CC4(CC(COc5ccc6nccn6c5)C4)C3)cccc12 [Example 8808, 5-(6-((imidazo[1,2-a]pyridin-6-yloxy)methyl)-2-azaspiro[3.3]heptan-2-yl)isoquinolin-1-amine]
10 to 40 µM	> 40 µM	Nc1nccc2c(NCC34CC(Cn5ccccc5=O)(CCO3)C4)cccc12 [Example 10915, 1-((1-(((1-aminoisoquinolin-5-yl)amino)methyl)-2-oxabicyclo[3.1.1]heptan-5-yl)methyl)pyridin-2(1H)-one]
1 to 3 µM	> 40 µM	Nc1nccc2c(NCC34COC(COc5ccn6ncnc6c5)(C3)C4)cccc12 [Example 2207, N5-((1-(([1,2,4]triazolo[1,5-a]pyridin-7-yloxy)methyl)-2-oxabicyclo[2.1.1]hexan-4-yl)methyl)isoquinoline-1,5-diamine]
0.3 to 1 µM	> 4 µM	Nc1nccc2c(NCC34CC(COC5CCn6ccnc6C5)(CCO3)C4)cccc12 (stereo not drawn) [Example 10903, N5-((5-(((5,6,7,8-tetrahydroimidazo[1,2-a]pyridin-7-yl)oxy)methyl)-2-oxabicyclo[3.1.1]heptan-1-yl)methyl)isoquinoline-1,5-diamine]
1 to 3 µM	> 40 µM	Nc1nccc2c(N3CCC4(CC(OCc5ccn6ccnc6c5)C4)C3)cccc12 (stereo not drawn) [Example 8803, 5-(2-(imidazo[1,2-a]pyridin-7-ylmethoxy)-6-azaspiro[3.4]octan-6-yl)isoquinolin-1-amine]
3 to 10 µM	> 40 µM	Nc1nccc2c(NCC34CC(COc5ccccn5)(CCO3)C4)cccc12 [Example 10914, N5-((5-((pyridin-2-yloxy)methyl)-2-oxabicyclo[3.1.1]heptan-1-yl)methyl)isoquinoline-1,5-diamine]
1 to 3 µM	> 40 µM	Nc1nccc2c(NCC34COC(COc5ccn6c(C(F)(F)F)nnc6c5)(C3)C4)cccc12 [Example 2206, N5-((1-(((3-(trifluoromethyl)-[1,2,4]triazolo[4,3-a]pyridin-7-yl)oxy)methyl)-2-oxabicyclo[2.1.1]hexan-4-yl)methyl)isoquinoline-1,5-diamine]
0.01 to 0.1 µM	–	Cn1ccc(OCC23CN(C(=O)OCc4ccccn4)C(CNc4cccc5c(N)nccc45)(C2)C3)cc1=O [Example 12021, pyridin-2-ylmethyl 1-(((1-aminoisoquinolin-5-yl)amino)methyl)-4-(((1-methyl-2-oxo-1,2-dihydropyridin-4-yl)oxy)methyl)-2-azabicyclo[2.1.1]hexane-2-carboxylate]
0.01 to 0.1 µM	–	Cn1ccc(OCC23CN(C(=O)CCc4cccc5ncccc45)C(CNc4cccc5c(N)nccc45)(C2)C3)cc1=O [Example 12052, 4-((1-(((1-aminoisoquinolin-5-yl)amino)methyl)-2-(3-(quinolin-5-yl)propanoyl)-2-azabicyclo[2.1.1]hexan-4-yl)methoxy)-1-methylpyridin-2(1H)-one]
0.3 to 1 µM	–	Nc1nccc2c(NCC34CC(COc5ccc6c(c5)C(=O)NC6)(CCO3)C4)cccc12 [Example 10941, 6-((1-(((1-aminoisoquinolin-5-yl)amino)methyl)-2-oxabicyclo[3.1.1]heptan-5-yl)methoxy)isoindolin-1-one]
0.001 to 0.01 µM	–	CN(Cc1ccccc1)C(=O)N1CC2(COc3ccn(C)c(=O)c3)CC1(CNc1cccc3c(N)nccc13)C2 [Example 12041, 1-[[(1-Amino-5-isoquinolyl)amino]methyl]-N-benzyl-N-methyl-4-[(1-methyl-2-oxo-4-pyridyl)oxymethyl]-2-azabicyclo[2.1.1]hexane-2-carboxamide]

Further lines, the molecule ahead of its results:

Compound	IC50 (Human Factor XIIa)	IC50 (Plasma Kallikrein)
Nc1nccc2c(CCC34CC(COc5ccn6ccnc6c5)(C3)C4)cccc12 [Example 1014, 5-[2-[3-(Imidazo[1,2-a]pyridin-7-yloxymethyl)-1-bicyclo[1.1.1]pentanyl]ethyl]isoquinolin-1-amine]	1 to 3 µM	> 40 µM
Nc1nccc2c(NC34CC(COc5ccc6nccn6c5)(C3)C4)cccc12 [Example 1131, N5-(3-((imidazo[1,2-a]pyridin-6-yloxy)methyl)bicyclo[1.1.1]pentan-1-yl)isoquinoline-1,5-diamine]	10 to 40 µM	> 40 µM
Clc1c[nH]c2ncc(NCC34CC(COc5ccn6ccnc6c5)(C3)C4)cc12 [Example 1129, 3-chloro-N-((3-((imidazo[1,2-a]pyridin-7-yloxy)methyl)bicyclo[1.1.1]pentan-1-yl)methyl)-1H-pyrrolo[2,3-b]pyridin-5-amine]	–	> 100 µM
Nc1nccc2c(NCC34CC(COc5ccc6cn[nH]c6c5)(C3)C4)cccc12 [Example 1125, N5-((3-(((1H-indazol-6-yl)oxy)methyl)bicyclo[1.1.1]pentan-1-yl)methyl)isoquinoline-1,5-diamine]	10 to 40 µM	> 40 µM
N#Cc1cnc(OCC23CC(CNc4cccc5c(N)nccc45)(CO2)C3)nc1 [Example 2208, 2-((4-(((1-aminoisoquinolin-5-yl)amino)methyl)-2-oxabicyclo[2.1.1]hexan-1-yl)methoxy)pyrimidine-5-carbonitrile]	3 to 10 µM	> 40 µM
Cn1ccc(OCC23CC(CNc4cccc5c(N)nccc45)(CN2C(=O)CCc2ccccn2)C3)cc1=O [Example 13016, 4-((4-(((1-aminoisoquinolin-5-yl)amino)methyl)-2-(3-(pyridin-2-yl)propanoyl)-2-azabicyclo[2.1.1]hexan-1-yl)methoxy)-1-methylpyridin-2(1H)-one]	0.3 to 1 µM	–
Nc1nccc2c(NCC34CC(COc5cccc(N6CCCC6=O)c5)(CO3)C4)cccc12 [Example 6653, 1-(3-((1-(((1-aminoisoquinolin-5-yl)amino)methyl)-2-oxabicyclo[2.1.1]hexan-4-yl)methoxy)phenyl)pyrrolidin-2-one]	0.3 to 1 µM	–
COC(=O)N1CC2(COc3ccn(C)c(=O)c3)CC1(CNc1ccc3c(N)nccc3c1)C2 [Example 12013, methyl 1-(((1-aminoisoquinolin-6-yl)amino)methyl)-4-(((1-methyl-2-oxo-1,2-dihydropyridin-4-yl)oxy)methyl)-2-azabicyclo[2.1.1]hexane-2-carboxylate]	0.3 to 1 µM	–
COc1cc(OCC23CCOC(CNc4cccc5c(N)nccc45)(C2)C3)ccn1 [Example 10944, N5-((5-(((2-methoxypyridin-4-yl)oxy)methyl)-2-oxabicyclo[3.1.1]heptan-1-yl)methyl)isoquinoline-1,5-diamine]	1 to 3 µM	–
Nc1nccc2c(NCC34CC(COc5ccc6nncn6c5)(CO3)C4)cccc12 [Example 6634, N5-((4-(([1,2,4]triazolo[4,3-a]pyridin-6-yloxy)methyl)-2-oxabicyclo[2.1.1]hexan-1-yl)methyl)isoquinoline-1,5-diamine]	1 to 3 µM	–
Cc1nccc(OCC23CCOC(CNc4cccc5c(N)nccc45)(C2)C3)n1 [Example 10974, N5-((5-(((2-methylpyrimidin-4-yl)oxy)methyl)-2-oxabicyclo[3.1.1]heptan-1-yl)methyl)isoquinoline-1,5-diamine]	3 to 10 µM	–
Nc1nccc2c(NCC34CC(COc5ccc6c(c5)CCNC6=O)(CO3)C4)cccc12 [Example 6637, 6-((1-(((1-aminoisoquinolin-5-yl)amino)methyl)-2-oxabicyclo[2.1.1]hexan-4-yl)methoxy)-3,4-dihydroisoquinolin-1(2H)-one]	0.1 to 0.3 µM	–
Cn1ccc(OCC23CC(CNc4cccc5c(N)nccc45)(CN2C(=O)CCc2ccccc2Cl)C3)cc1=O [Example 13017, 4-((4-(((1-aminoisoquinolin-5-yl)amino)methyl)-2-(3-(2-chlorophenyl)propanoyl)-2-azabicyclo[2.1.1]hexan-1-yl)methoxy)-1-methylpyridin-2(1H)-one]	0.3 to 1 µM	–
Cn1ccc(OCC23CN(C(=O)OCc4cccnc4)C(CNc4cccc5c(N)nccc45)(C2)C3)cc1=O [Example 12022, pyridin-3-ylmethyl 1-(((1-aminoisoquinolin-5-yl)amino)methyl)-4-(((1-methyl-2-oxo-1,2-dihydropyridin-4-yl)oxy)methyl)-2-azabicyclo[2.1.1]hexane-2-carboxylate]	0.01 to 0.1 µM	–
